Experimental data published in the Kinase Knowledgebase extract (Sharma et al. 2016).

Each compound was assayed against EGFR (human) (UniProt P00533) (assay: not given). Details: a431.
Chain of EGFR (human) (P00533 whole entry, looked up): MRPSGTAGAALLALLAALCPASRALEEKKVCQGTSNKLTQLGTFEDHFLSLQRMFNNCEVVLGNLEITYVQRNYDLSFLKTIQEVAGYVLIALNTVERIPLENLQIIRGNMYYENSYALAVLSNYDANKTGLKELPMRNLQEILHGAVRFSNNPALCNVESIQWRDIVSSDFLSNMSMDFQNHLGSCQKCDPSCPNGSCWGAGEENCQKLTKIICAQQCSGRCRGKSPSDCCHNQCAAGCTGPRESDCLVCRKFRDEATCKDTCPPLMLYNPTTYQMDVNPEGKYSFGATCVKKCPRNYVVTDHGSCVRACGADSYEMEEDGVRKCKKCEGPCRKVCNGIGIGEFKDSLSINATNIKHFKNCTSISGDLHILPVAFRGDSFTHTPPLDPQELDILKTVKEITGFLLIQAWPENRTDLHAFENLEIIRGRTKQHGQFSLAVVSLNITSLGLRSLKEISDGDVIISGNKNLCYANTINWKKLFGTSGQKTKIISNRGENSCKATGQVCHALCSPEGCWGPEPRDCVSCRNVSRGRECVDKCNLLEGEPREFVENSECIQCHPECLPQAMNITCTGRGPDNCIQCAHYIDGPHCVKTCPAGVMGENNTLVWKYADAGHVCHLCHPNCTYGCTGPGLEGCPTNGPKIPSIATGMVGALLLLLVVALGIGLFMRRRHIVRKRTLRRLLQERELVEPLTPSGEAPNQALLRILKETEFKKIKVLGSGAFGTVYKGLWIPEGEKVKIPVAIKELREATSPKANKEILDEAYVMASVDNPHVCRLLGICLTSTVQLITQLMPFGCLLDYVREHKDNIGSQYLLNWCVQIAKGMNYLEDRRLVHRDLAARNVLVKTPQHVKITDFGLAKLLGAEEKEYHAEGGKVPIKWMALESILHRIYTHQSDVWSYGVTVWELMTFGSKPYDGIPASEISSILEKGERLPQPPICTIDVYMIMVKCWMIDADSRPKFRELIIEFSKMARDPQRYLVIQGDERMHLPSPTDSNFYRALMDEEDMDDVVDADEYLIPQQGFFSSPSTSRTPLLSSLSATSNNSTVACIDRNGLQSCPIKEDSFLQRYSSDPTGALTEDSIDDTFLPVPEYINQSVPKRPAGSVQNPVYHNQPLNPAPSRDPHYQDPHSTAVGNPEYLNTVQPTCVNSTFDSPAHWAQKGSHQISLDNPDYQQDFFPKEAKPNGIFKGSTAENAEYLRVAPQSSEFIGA
For `C=CC(=O)N1CC(C(=O)Nc2ccc3ncnc(Nc4ccc(OCc5ccccn5)c(Cl)c4)c3c2)C1`, the IC50 was 1400 nM.

What follows are compounds tested against EGFR (UniProt P00533) (assay: not given). Details: not given.
Chain of EGFR (P00533 whole entry, looked up): as above
For `C[C@@](Cc1cc(O)c(O)c(SC[C@H](NC(=O)CC[C@H](N)C(=O)O)C(=O)NCC(=O)O)c1)(NC(=O)CCN)C(=O)O`, the inhibition was 5.2. For `N[C@@H](CCC(=O)N[C@@H](CSc1cc(C[C@H](N)C(=O)O)cc(O)c1O)C(=O)NCC(=O)O)C(=O)O`, the inhibition was 4.4. `NCCC(=O)N[C@@H](Cc1cc(O)c(O)c(SC[C@H](NC(=O)CC[C@H](N)C(=O)O)C(=O)NCC(=O)O)c1)C(=O)O` was tested, and the inhibition was 2.2. For `NCCc1cc(SC[C@H](NC(=O)CC[C@H](N)C(=O)O)C(=O)NCC(=O)O)c(O)c(O)c1SC[C@H](NC(=O)CC[C@H](N)C(=O)O)C(=O)NCC(=O)O`, the inhibition was 7.6. For `NCCC(=O)N[C@H](Cc1cc(O)c(O)c(SC[C@H](NC(=O)CC[C@H](N)C(=O)O)C(=O)NCC(=O)O)c1)C(=O)O`, the inhibition was 8.2. For `N[C@@H](CSc1cc(C[C@H](N)C(=O)O)cc(O)c1O)C(=O)O`, the inhibition was 2.9. Work on `NCCC(=O)N[C@@H](Cc1cc(O)c(O)c(SC[C@H](N)C(=O)O)c1)C(=O)O` yielded an inhibition of 2.5. In the case of `NCCc1cc(O)c(O)c(SC[C@H](NC(=O)CC[C@H](N)C(=O)O)C(=O)NCC(=O)O)c1`, the inhibition is reported as 1. `NCCC(=O)NCCc1cc(O)c(O)c(SC[C@H](NC(=O)CC[C@H](N)C(=O)O)C(=O)NCC(=O)O)c1` was tested, and the inhibition was 4.9.

Target: EGFR (UniProt P00533)
Assay: not given
Details: not given
Remark: another data set of the same source
With `COc1cccc(Nc2ncnc3cccc(CN4CCC(N)CC4)c23)c1` the IC50 was 1 to 5000 nM. Compound `C#Cc1cccc(Nc2ncnc3cccc(CN4CC[C@@H](N)[C@H](O)C4)c23)c1` has an IC50 of 1 to 5000 nM. For `C#Cc1cccc(Nc2ncnc3cccc(CN4CC[C@@H](N)[C@H](CO)C4)c23)c1`, the IC50 was 1 to 5000 nM. `N[C@@H]1CCN(Cc2cccc3ncnc(Nc4cccc(Cl)c4)c23)C[C@H]1O` was tested, and the IC50 was 1 to 5000 nM. Work on `NC1CCN(Cc2cccc3ncnc(Nc4ccc(OCc5cccc(F)c5)c(Cl)c4)c23)CC1` yielded an IC50 of 1 to 5000 nM. Work on `CNC(=O)[C@@H]1CN(Cc2cccc3ncnc(Nc4cccc(OC)c4)c23)CC[C@H]1N` yielded an IC50 of 1 to 5000 nM. For `COc1cccc(Nc2ncnc3cccc(CN4CC[C@@H](N)[C@H](O)C4)c23)c1`, the IC50 was 1 to 5000 nM. `N[C@@H]1CCN(Cc2cccc3ncnc(Nc4ccc5c(cnn5Cc5cccc(F)c5)c4)c23)C[C@H]1O` showed an IC50 of 1 to 5000 nM.

These compounds were tested against CDK2 (UniProt P24941) (assay: Enzyme Assay). Details: not given.
With `N[C@H](COc1cncc(-c2ccc3[nH]ncc3c2)c1)Cc1c[nH]c2ccccc12` the IC50 was 63 nM and the Ki was 42 nM. `N[C@H](COc1cncc(-c2cc3cn[nH]c3cn2)c1)Cc1c[nH]c2ccccc12` showed an IC50 of 6 nM.

What follows are compounds tested against PIK3CD (Human) (UniProt O00329) (assay: Enzyme Assay). Details: not given.
For `O=C(c1nn([C@@H]2CCCN(CCN3CCOCC3)C2)c2c1CS(=O)(=O)c1c(F)cccc1-2)N1CCOCC1`, the IC50 was 15 nM. `CCN1CCN(c2cccc3c2CCN3C(=O)Cc2nc(N3CCOCC3)cc(=O)[nH]2)CC1` gave an IC50 of 2 nM. `C[C@H](Nc1ncnc2ccc(Cl)nc12)c1nc2c(F)ccc(Cl)c2c(=O)n1N1CCNCC1` showed an IC50 of 3 nM.

Each compound was assayed against PIK3CA (human) (UniProt P42336) (assay: Enzyme Assay). Details: not given.
Chain of PIK3CA (human) (P42336 whole entry, looked up): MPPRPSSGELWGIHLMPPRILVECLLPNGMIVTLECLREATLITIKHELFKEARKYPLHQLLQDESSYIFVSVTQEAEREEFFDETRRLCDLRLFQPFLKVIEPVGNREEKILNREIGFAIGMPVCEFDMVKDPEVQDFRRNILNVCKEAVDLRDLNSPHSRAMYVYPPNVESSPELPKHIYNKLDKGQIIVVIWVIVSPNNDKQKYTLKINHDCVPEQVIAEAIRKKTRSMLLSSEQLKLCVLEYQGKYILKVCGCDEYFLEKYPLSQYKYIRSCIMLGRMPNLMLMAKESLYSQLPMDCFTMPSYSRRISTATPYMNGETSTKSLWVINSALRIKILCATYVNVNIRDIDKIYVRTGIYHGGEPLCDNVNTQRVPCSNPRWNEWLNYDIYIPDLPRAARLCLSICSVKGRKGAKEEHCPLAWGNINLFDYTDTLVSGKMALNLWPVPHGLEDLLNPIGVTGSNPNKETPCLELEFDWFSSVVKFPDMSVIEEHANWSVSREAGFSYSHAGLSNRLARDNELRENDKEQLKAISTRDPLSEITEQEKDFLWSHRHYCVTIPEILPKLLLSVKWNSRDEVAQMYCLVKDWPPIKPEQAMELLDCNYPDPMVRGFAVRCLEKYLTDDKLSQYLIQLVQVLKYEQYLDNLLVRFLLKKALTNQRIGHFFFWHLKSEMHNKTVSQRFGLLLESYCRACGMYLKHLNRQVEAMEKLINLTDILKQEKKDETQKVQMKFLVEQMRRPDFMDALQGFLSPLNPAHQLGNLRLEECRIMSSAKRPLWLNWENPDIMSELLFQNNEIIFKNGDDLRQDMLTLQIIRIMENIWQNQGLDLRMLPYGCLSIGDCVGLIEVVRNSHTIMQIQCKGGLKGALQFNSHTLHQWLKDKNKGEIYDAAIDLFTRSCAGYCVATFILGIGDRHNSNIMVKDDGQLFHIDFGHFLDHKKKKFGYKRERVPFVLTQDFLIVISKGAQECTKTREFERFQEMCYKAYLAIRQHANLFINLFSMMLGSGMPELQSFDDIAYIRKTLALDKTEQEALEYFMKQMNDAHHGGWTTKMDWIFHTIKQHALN
`C[C@@H](Oc1ccccc1)c1cc(C(=O)N(C)CCO)cn2c(=O)cc(N3CCOCC3)nc12` gave an IC50 of 3.5 µM. `O=C(c1nn([C@@H]2CCCN(CCN3CCOCC3)C2)c2c1CS(=O)(=O)c1c(F)cccc1-2)N1CCOCC1` showed an IC50 of 7.65 µM. `CCN1CCN(c2cccc3c2CCN3C(=O)Cc2nc(N3CCOCC3)cc(=O)[nH]2)CC1` was tested, and the IC50 was 0.66 µM. With `O=c1cc(NCc2ccccc2)nc(N2CCOCC2)[nH]1` the IC50 was 142 µM.

These compounds were tested against PIK3CG (human) (UniProt P48736) (assay: Enzyme Assay). Details: not given.
`CCN1CCN(c2cccc3c2CCN3C(=O)Cc2nc(N3CCOCC3)cc(=O)[nH]2)CC1` was tested, and the IC50 was 10 µM. Compound `C[C@H](Nc1ncnc2ccc(Cl)nc12)c1nc2c(F)ccc(Cl)c2c(=O)n1N1CCNCC1` has an IC50 of 3.1 µM.

These compounds were tested against PIK3CB (Human) (UniProt P42338) (assay: Enzyme Assay). Details: not given.
Chain of PIK3CB (Human) (P42338 whole entry, looked up): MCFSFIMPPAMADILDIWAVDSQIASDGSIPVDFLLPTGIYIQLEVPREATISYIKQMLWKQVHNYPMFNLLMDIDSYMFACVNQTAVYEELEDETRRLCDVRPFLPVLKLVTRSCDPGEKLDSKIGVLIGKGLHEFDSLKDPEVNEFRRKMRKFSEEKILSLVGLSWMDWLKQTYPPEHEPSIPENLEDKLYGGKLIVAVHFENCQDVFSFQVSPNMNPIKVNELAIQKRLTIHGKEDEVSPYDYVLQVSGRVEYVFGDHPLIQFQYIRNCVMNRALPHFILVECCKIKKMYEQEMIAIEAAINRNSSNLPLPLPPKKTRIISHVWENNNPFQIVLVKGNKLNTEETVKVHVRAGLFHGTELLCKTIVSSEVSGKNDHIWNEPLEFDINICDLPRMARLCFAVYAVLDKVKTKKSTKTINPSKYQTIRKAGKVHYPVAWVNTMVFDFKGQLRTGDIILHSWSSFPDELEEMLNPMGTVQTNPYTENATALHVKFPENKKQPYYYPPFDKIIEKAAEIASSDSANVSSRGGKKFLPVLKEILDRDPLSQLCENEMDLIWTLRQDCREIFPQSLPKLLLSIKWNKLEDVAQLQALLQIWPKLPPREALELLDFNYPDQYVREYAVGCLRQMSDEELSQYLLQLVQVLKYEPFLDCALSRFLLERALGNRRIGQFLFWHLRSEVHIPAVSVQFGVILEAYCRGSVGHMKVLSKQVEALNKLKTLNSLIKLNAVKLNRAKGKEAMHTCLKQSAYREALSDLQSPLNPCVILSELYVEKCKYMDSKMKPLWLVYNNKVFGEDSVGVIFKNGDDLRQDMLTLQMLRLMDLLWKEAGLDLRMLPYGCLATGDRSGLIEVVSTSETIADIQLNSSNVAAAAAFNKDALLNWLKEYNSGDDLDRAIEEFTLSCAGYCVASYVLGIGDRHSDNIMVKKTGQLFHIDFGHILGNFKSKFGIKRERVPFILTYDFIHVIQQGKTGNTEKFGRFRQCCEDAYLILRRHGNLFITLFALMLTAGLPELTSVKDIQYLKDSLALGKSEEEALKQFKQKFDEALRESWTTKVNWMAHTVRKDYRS
With `C[C@@H](Oc1ccccc1)c1cc(C(=O)N(C)CCO)cn2c(=O)cc(N3CCOCC3)nc12` the IC50 was 100 nM. `O=C(c1nn([C@@H]2CCCN(CCN3CCOCC3)C2)c2c1CS(=O)(=O)c1c(F)cccc1-2)N1CCOCC1` showed an IC50 of 2450 nM. `CCN1CCN(c2cccc3c2CCN3C(=O)Cc2nc(N3CCOCC3)cc(=O)[nH]2)CC1` was tested, and the IC50 was 332 nM. Compound `O=c1cc(NCc2ccccc2)nc(N2CCOCC2)[nH]1` has an IC50 of 34000 nM. For `C[C@H](Nc1ncnc2ccc(Cl)nc12)c1nc2c(F)ccc(Cl)c2c(=O)n1N1CCNCC1`, the IC50 was 8 nM. Compound `CC[C@H](Nc1ncnc(N)c1-c1nnc(C)o1)c1cc2cccc(Cl)c2c(=O)n1-c1ccccc1` has an IC50 of 359 nM.

What follows are compounds tested against MAPK14 (UniProt Q16539) (assay: Enzyme Assay). Details: not given.
Chain of MAPK14 (Q16539 whole entry, looked up): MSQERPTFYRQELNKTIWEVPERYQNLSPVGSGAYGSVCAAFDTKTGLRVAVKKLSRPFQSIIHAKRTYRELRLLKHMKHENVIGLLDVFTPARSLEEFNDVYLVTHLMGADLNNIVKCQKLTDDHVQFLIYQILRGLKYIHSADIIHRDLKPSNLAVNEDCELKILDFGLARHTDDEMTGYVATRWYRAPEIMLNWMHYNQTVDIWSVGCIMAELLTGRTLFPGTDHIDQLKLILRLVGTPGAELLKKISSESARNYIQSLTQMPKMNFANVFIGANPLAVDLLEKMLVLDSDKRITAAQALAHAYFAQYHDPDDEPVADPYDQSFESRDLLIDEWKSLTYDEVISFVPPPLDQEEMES
In the case of `CC(C)S(=O)(=O)n1c(N)nc2ccc(-c3[nH]c(-c4c(F)cccc4F)nc3-c3ccccc3)cc21`, the Ki is reported as 5 nM. `Fc1ccc(-c2ncn(CCCN3CCOCC3)c2-c2ccccn2)cc1` gave an IC50 of 64.6 µM. Compound `Nc1ccccc1Nc1ccc2c(c1)OCc1ccccc1C2=O` has an IC50 of 0.303 µM.

What follows are compounds tested against EGFR (human) (UniProt P00533) (assay: not given). Details: not given.
In the case of `COc1cccc(Nc2ncnc3sc4c(c23)CCCC4)c1`, the IC50 is reported as 34 nM. Compound `Oc1cccc(Nc2ncnc3sc4c(c23)CCCC4)c1` has an IC50 of 7.89 nM. `Clc1cccc(Nc2ncnc3sc4c(c23)CCCC4)c1` was tested, and the IC50 was 1.97 nM. With `O=[N+]([O-])c1cccc(Nc2ncnc3sc4c(c23)CCCC4)c1` the IC50 was 2.59 nM. For `FC(F)(F)c1cccc(Nc2ncnc3sc4c(c23)CCCC4)c1`, the IC50 was 35.5 nM. Work on `Brc1ccc(Nc2ncnc3sc4c(c23)CCCC4)cc1` yielded an IC50 of 50.3 nM. `Oc1ccc(Nc2ncnc3sc4c(c23)CCCC4)cc1` showed an IC50 of 27.4 nM. `c1ccc(Nc2ncnc3sc4c(c23)CCCC4)cc1` gave an IC50 of 10.5 nM.
